One assay has as its system Clostridioides difficile. In words: Antimicrobial activity against Clostridium difficile. The format is functional.
The test system of assay [1] is Helicobacter pylori. In words: Antimicrobial activity against Helicobacter pylori. The format is functional.
Assay [2] has as its system Helicobacter pylori. In words: Inhibition of Helicobacter pyroli PFOR expressed in Escherichia coli at 40 uM.
For another assay, the system named is Campylobacter jejuni. In words: Antimicrobial activity against Campylobacter jejuni. The format is functional.

From ChEMBL document CHEMBL1158616, “Biological activity of modified and exchanged 2-amino-5-nitrothiazole amide analogues of nitazoxanide” (2010) come the findings set out here.

Usually MIC stands for the least concentration at which growth counts as inhibited. One may read the inhibition as the change of the read-out against control, counted positive when it falls.

In brackets after ≈: the same amount, converted by molar mass. Where only a bound is given, the exact number is not on record here.

For `CC(=O)Oc1ccccc1C(=O)Nc1ncc([N+](=O)[O-])s1` [NITAZOXANIDE], the MIC in the assay with Clostridioides difficile worked out at 39.1 µM (≈ 12 µg/mL); with Helicobacter pylori [1], 13 µM (≈ 3.99 µg/mL); against Campylobacter jejuni, 0.8 µM (≈ 0.246 µg/mL). The molecule also returned an inhibition in the assay on Helicobacter pylori [2] of 54%.

As for `O=C(Nc1sc([N+](=O)[O-])cc1[N+](=O)[O-])c1ccoc1`, the results for the MIC with Clostridioides difficile, in the assay with Helicobacter pylori [1] and against Campylobacter jejuni were 0.4 µM (≈ 0.113 µg/mL), 2.6 µM (≈ 0.736 µg/mL) and 3.5 µM (≈ 0.991 µg/mL), respectively. In the assay with Helicobacter pylori [2], this molecule returned an inhibition of 66%.

As for `O=C(Nc1sc([N+](=O)[O-])cc1[N+](=O)[O-])c1cccs1`, the MIC against Clostridioides difficile worked out at 1 µM (≈ 0.299 µg/mL); in the assay with Helicobacter pylori [1] it was 2.5 µM (≈ 0.748 µg/mL); in the assay with Campylobacter jejuni, 20 µM (≈ 5.99 µg/mL). In the assay on Helicobacter pylori [2], this molecule displayed an inhibition of 77%.

As to `O=C(Nc1nc(Cl)c([N+](=O)[O-])s1)c1ccccc1`, the MIC against Clostridioides difficile is 7 µM (≈ 1.99 µg/mL); in the assay with Helicobacter pylori [1] it was 8.8 µM (≈ 2.5 µg/mL); against Campylobacter jejuni it was over 28.2 µM. For the same molecule, the inhibition in the assay on Helicobacter pylori [2] is 59%.

Regarding `O=C(Nc1sc([N+](=O)[O-])cc1[N+](=O)[O-])c1cccc(C(F)(F)F)c1`, the MIC in the assay with Clostridioides difficile worked out at 2.1 µM (≈ 0.759 µg/mL); against Helicobacter pylori [1], 0.5 µM (≈ 0.181 µg/mL); against Campylobacter jejuni, 4.2 µM (≈ 1.52 µg/mL). Moreover, the inhibition with Helicobacter pylori [2] worked out at 47%.

As to `O=C(Nc1ncc([N+](=O)[O-])s1)c1cccs1` [TENONITROZOLE], the results for the minimum inhibitory concentration (MIC) against Clostridioides difficile, against Helicobacter pylori [1] and in the assay with Campylobacter jejuni were 2.9 µM (≈ 0.74 µg/mL), 2.9 µM (≈ 0.74 µg/mL) and 1 µM (≈ 0.255 µg/mL), respectively. In addition, the inhibition in the assay on Helicobacter pylori [2] was 50%.

Consider `O=C(Nc1ncc([N+](=O)[O-])s1)c1cccc(C(F)(F)F)c1`, for which the MIC stood at 4.7 µM (≈ 1.49 µg/mL) with Clostridioides difficile, 3.5 µM (≈ 1.11 µg/mL) with Helicobacter pylori [1] and 0.4 µM (≈ 0.127 µg/mL) against Campylobacter jejuni. This molecule showed an inhibition in the assay on Helicobacter pylori [2] of 47%.

As for `O=C(Nc1ncc([N+](=O)[O-])s1)c1ccoc1`, the MIC with Clostridioides difficile came out at 12.5 µM (≈ 2.99 µg/mL); with Helicobacter pylori [1], 0.8 µM (≈ 0.191 µg/mL); against Campylobacter jejuni, 2.1 µM (≈ 0.502 µg/mL). In the assay on Helicobacter pylori [2], this molecule yielded an inhibition of 56%.

For the molecule `CCCCCC(=O)Nc1sc([N+](=O)[O-])cc1[N+](=O)[O-]`, the MIC with Clostridioides difficile worked out at 0.9 µM (≈ 0.259 µg/mL); with Helicobacter pylori [1] it was 2.6 µM (≈ 0.747 µg/mL); in the assay with Campylobacter jejuni, 27.8 µM (≈ 7.99 µg/mL). In addition, in the assay on Helicobacter pylori [2], the inhibition came to 80%.

For the molecule `O=C(Nc1sc([N+](=O)[O-])cc1[N+](=O)[O-])c1ccccc1`, the minimal inhibitory concentration (MIC) was found to be 0.9 µM (≈ 0.264 µg/mL) against Clostridioides difficile, 1.3 µM (≈ 0.381 µg/mL) with Helicobacter pylori [1] and 27.3 µM (≈ 8.01 µg/mL) with Campylobacter jejuni. In addition, the inhibition with Helicobacter pylori [2] amounted to 55%.

Consider `O=C(Nc1nc(Cl)c([N+](=O)[O-])s1)c1cccs1`, for which the MIC against Clostridioides difficile is 13.8 µM (≈ 4 µg/mL); against Helicobacter pylori [1] it was 6.9 µM (≈ 2 µg/mL); against Campylobacter jejuni, over 13.8 µM. In the assay on Helicobacter pylori [2], this molecule displayed an inhibition of 51%.

Take `CCCCCC(=O)Nc1ncc([N+](=O)[O-])s1`: the MIC with Clostridioides difficile worked out at 2.1 µM (≈ 0.511 µg/mL); with Helicobacter pylori [1] it was 0.5 µM (≈ 0.122 µg/mL); against Campylobacter jejuni, 8.2 µM (≈ 1.99 µg/mL). In the assay on Helicobacter pylori [2], this molecule showed an inhibition of 70%.

Take `CCCCCC(=O)Nc1nc(Cl)c([N+](=O)[O-])s1`: the minimal inhibitory concentration (MIC) against Clostridioides difficile amounted to 36 µM (≈ 10 µg/mL); in the assay on Helicobacter pylori [1], 0.9 µM (≈ 0.25 µg/mL); in the assay with Campylobacter jejuni, 28.8 µM (≈ 8 µg/mL). This molecule yielded an inhibition with Helicobacter pylori [2] of 63%.

On to `O=C(Nc1nc(Cl)c([N+](=O)[O-])s1)c1cccc(C(F)(F)F)c1`, for which the MIC against Clostridioides difficile is 34.1 µM (≈ 12 µg/mL); with Helicobacter pylori [1] it was 5.7 µM (≈ 2 µg/mL); with Campylobacter jejuni, over 22.7 µM. The inhibition in the assay with Helicobacter pylori [2] came out at 27%.
